Measured values: ChEMBL document CHEMBL4507293 (2021)

Experiments:
[1] = molecular target: High affinity 3',5'-cyclic-AMP phosphodiesterase 7A (Homo sapiens, UniProt Q13946); test: Biochemical assay (PDE7A)
[2] = test system: Tyrosine-protein kinase ABL1 (Homo sapiens), P00519 [F317I]; conditions: Compound concentration 100.0 nM
[3] = molecular target: Bone morphogenetic protein receptor type-1B (Homo sapiens) (UniProt O00238); conditions: Compound concentration 100.0 nM
[4] = molecular target: Serine/threonine-protein kinase B-raf (Homo sapiens) (UniProt P15056); conditions: Compound concentration 100.0 nM
[5] = molecular target: Calcium/calmodulin-dependent protein kinase type II subunit beta (Homo sapiens) (UniProt Q13554); conditions: Compound concentration 100.0 nM
[6] = molecular target: Dual specificity protein kinase CLK2 (Homo sapiens) (UniProt P49760); conditions: Compound concentration 100.0 nM
[7] = molecular target: Dual specificity protein kinase CLK3 (Homo sapiens) (UniProt P49761); conditions: Compound concentration 100.0 nM
[8] = molecular target: Tyrosine-protein kinase CSK (Homo sapiens) (UniProt P41240); conditions: Compound concentration 100.0 nM
[9] = test system: Epidermal growth factor receptor (Homo sapiens), P00533 [G719C]; conditions: Compound concentration 100.0 nM
[10] = test system: Epidermal growth factor receptor (Homo sapiens), P00533 [UNDEFINED MUTATION]; conditions: Compound concentration 100.0 nM
[11] = molecular target: Mitogen-activated protein kinase 15 (Homo sapiens) (UniProt Q8TD08); conditions: Compound concentration 100.0 nM
[12] = molecular target: Tyrosine-protein kinase FRK (Homo sapiens) (UniProt P42685); conditions: Compound concentration 100.0 nM
[13] = molecular target: Serine/threonine-protein kinase ICK (Homo sapiens) (UniProt Q9UPZ9); conditions: Compound concentration 100.0 nM
[14] = molecular target: Inhibitor of nuclear factor kappa-B kinase subunit beta (Homo sapiens) (UniProt O14920); conditions: Compound concentration 100.0 nM
[15] = test system: Mast/stem cell growth factor receptor Kit (Homo sapiens), P10721 [V559D,V654A]; conditions: Compound concentration 100.0 nM
[16] = molecular target: LIM domain kinase 1 (Homo sapiens) (UniProt P53667); conditions: Compound concentration 100.0 nM
[17] = molecular target: Leucine-rich repeat serine/threonine-protein kinase 2 (Homo sapiens) (UniProt Q5S007); conditions: Compound concentration 100.0 nM
[18] = molecular target: Mitogen-activated protein kinase kinase kinase kinase 2 (Homo sapiens) (UniProt Q12851); conditions: Compound concentration 100.0 nM
[19] = molecular target: MAP kinase-activated protein kinase 2 (Homo sapiens) (UniProt P49137); conditions: Compound concentration 100.0 nM
[20] = molecular target: MAP kinase-activated protein kinase 5 (Homo sapiens) (UniProt Q8IW41); conditions: Compound concentration 100.0 nM
[21] = molecular target: Muscle, skeletal receptor tyrosine-protein kinase (Homo sapiens) (UniProt O15146); conditions: Compound concentration 100.0 nM
[22] = molecular target: Serine/threonine-protein kinase 38 (Homo sapiens) (UniProt Q15208); conditions: Compound concentration 100.0 nM
[23] = molecular target: Serine/threonine-protein kinase Nek4 (Homo sapiens) (UniProt P51957); conditions: Compound concentration 100.0 nM
[24] = molecular target: Mitogen-activated protein kinase 11 (Homo sapiens) (UniProt Q15759); conditions: Compound concentration 100.0 nM
[25] = molecular target: Mitogen-activated protein kinase 12 (Homo sapiens) (UniProt P53778); conditions: Compound concentration 100.0 nM
[26] = molecular target: Serine/threonine-protein kinase PAK 2 (Homo sapiens) (UniProt Q13177); conditions: Compound concentration 100.0 nM
[27] = molecular target: Serine/threonine-protein kinase PAK 4 (Homo sapiens) (UniProt O96013); conditions: Compound concentration 100.0 nM
[28] = molecular target: Phosphorylase b kinase regulatory subunit alpha, liver isoform (Homo sapiens) (UniProt P46019); conditions: Compound concentration 100.0 nM
[29] = molecular target: Phosphatidylinositol 3-kinase C2 domain-containing subunit gamma (Homo sapiens) (UniProt O75747); conditions: Compound concentration 100.0 nM
[30] = molecular target: Serine/threonine-protein kinase N1 (Homo sapiens) (UniProt Q16512); conditions: Compound concentration 100.0 nM
[31] = molecular target: Protein kinase C theta type (Homo sapiens) (UniProt Q04759); conditions: Compound concentration 100.0 nM
[32] = molecular target: Serine/threonine-protein kinase SIK3 (Homo sapiens) (UniProt Q9Y2K2); conditions: Compound concentration 100.0 nM
[33] = molecular target: Proto-oncogene tyrosine-protein kinase receptor Ret (Homo sapiens) (UniProt P07949); conditions: Compound concentration 100.0 nM
[34] = molecular target: Serine/threonine-protein kinase RIO3 (Homo sapiens) (UniProt O14730); conditions: Compound concentration 100.0 nM
[35] = molecular target: Ribosomal protein S6 kinase alpha-6 (Homo sapiens) (UniProt Q9UK32); conditions: Compound concentration 100.0 nM
[36] = molecular target: Dual specificity testis-specific protein kinase 1 (Homo sapiens) (UniProt Q15569); conditions: Compound concentration 100.0 nM
[37] = molecular target: NT-3 growth factor receptor (Homo sapiens) (UniProt Q16288); conditions: Compound concentration 100.0 nM
[38] = molecular target: Transient receptor potential cation channel subfamily M member 6 (Homo sapiens) (UniProt Q9BX84); conditions: Compound concentration 100.0 nM
[39] = molecular target: Testis-specific serine/threonine-protein kinase 1 (Homo sapiens) (UniProt Q9BXA7); conditions: Compound concentration 100.0 nM
[40] = molecular target: Serine/threonine-protein kinase WNK1 (Homo sapiens) (UniProt Q9H4A3); conditions: Compound concentration 100.0 nM
[41] = molecular target: Serine/threonine-protein kinase WNK2 (Homo sapiens) (UniProt Q9Y3S1); conditions: Compound concentration 100.0 nM
[42] = molecular target: Serine/threonine-protein kinase 32A (Homo sapiens) (UniProt Q8WU08); conditions: Compound concentration 100.0 nM
[43] = molecular target: 5-hydroxytryptamine receptor 1E (Homo sapiens) (UniProt P28566); conditions: Compound concentration 10.0 uM
[44] = molecular target: 5-hydroxytryptamine receptor 7 (Homo sapiens, UniProt P34969); conditions: Compound concentration 10.0 uM
[45] = molecular target: Beta-3 adrenergic receptor (Homo sapiens) (UniProt P13945); conditions: Compound concentration 10.0 uM

Serine/threonine-protein kinase 38 (Homo sapiens), sequence (Q15208 2-465 limits assumed): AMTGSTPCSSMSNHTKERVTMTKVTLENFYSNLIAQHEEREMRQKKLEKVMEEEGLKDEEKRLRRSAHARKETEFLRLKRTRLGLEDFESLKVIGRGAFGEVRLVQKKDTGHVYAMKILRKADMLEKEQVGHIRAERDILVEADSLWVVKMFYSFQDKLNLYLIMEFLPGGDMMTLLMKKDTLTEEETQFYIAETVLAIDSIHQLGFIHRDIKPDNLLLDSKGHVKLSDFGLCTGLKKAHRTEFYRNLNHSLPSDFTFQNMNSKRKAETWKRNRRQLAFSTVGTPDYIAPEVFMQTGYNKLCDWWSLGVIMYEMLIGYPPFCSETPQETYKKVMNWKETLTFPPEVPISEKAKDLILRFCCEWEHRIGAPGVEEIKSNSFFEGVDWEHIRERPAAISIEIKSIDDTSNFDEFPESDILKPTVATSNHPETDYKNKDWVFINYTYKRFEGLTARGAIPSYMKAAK
High affinity 3',5'-cyclic-AMP phosphodiesterase 7A, sequence (Q13946 whole entry): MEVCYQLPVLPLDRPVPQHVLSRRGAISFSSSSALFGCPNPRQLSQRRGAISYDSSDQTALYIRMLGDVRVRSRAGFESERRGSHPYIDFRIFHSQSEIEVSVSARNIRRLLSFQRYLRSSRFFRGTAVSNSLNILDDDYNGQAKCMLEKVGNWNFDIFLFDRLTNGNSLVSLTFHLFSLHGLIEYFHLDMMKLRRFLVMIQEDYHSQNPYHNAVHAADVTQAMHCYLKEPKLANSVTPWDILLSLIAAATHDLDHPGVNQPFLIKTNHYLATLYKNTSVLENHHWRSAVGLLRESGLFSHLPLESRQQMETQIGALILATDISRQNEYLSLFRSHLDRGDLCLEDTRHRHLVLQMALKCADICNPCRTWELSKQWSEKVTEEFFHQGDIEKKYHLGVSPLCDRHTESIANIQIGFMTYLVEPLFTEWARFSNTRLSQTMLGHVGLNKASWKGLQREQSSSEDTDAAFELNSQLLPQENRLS
Mitogen-activated protein kinase 15 (Homo sapiens), sequence (Q8TD08 whole entry): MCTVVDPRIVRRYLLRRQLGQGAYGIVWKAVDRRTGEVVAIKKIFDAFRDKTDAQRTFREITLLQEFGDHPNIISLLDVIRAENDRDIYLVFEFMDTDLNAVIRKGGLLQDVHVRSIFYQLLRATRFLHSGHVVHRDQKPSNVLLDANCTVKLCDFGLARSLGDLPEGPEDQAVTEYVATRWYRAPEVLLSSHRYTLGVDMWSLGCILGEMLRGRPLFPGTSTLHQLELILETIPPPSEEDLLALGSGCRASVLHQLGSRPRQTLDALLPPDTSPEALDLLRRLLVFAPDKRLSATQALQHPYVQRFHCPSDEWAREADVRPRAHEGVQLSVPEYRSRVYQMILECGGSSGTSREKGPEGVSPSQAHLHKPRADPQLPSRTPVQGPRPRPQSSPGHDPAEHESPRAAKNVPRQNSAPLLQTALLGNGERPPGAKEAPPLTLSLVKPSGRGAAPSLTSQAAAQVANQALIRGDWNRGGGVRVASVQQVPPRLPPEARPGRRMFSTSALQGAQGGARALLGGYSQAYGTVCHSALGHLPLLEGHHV
Serine/threonine-protein kinase ICK (Homo sapiens), sequence (Q9UPZ9 whole entry): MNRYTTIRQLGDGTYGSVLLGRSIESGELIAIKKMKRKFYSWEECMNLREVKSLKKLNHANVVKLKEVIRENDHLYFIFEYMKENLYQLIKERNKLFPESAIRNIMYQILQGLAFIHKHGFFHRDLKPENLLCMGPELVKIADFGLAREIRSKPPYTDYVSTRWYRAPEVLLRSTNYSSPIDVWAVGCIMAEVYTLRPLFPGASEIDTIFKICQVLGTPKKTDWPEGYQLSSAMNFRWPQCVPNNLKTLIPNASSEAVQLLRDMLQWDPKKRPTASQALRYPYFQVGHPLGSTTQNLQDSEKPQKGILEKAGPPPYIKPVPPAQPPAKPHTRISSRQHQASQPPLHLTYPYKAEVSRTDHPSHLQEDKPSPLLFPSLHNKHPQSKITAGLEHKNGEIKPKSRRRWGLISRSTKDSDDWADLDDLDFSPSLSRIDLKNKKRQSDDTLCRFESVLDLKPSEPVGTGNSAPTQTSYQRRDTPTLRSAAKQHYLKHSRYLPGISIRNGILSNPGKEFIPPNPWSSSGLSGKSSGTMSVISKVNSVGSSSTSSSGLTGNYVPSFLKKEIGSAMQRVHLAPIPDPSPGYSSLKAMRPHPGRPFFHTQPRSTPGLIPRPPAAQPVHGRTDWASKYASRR
Serine/threonine-protein kinase 32A (Homo sapiens), sequence (Q8WU08 whole entry): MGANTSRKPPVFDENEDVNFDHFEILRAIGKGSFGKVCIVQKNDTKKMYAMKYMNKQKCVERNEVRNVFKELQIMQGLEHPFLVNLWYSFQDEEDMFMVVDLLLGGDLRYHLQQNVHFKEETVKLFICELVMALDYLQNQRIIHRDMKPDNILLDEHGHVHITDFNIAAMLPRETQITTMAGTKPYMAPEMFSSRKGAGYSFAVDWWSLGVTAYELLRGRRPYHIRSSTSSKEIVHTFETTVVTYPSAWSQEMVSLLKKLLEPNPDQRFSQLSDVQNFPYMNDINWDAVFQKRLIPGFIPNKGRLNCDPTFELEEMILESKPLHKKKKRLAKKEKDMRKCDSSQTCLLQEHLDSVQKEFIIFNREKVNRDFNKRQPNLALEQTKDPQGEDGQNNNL
Serine/threonine-protein kinase Nek4 (Homo sapiens), sequence (P51957 whole entry, looked up): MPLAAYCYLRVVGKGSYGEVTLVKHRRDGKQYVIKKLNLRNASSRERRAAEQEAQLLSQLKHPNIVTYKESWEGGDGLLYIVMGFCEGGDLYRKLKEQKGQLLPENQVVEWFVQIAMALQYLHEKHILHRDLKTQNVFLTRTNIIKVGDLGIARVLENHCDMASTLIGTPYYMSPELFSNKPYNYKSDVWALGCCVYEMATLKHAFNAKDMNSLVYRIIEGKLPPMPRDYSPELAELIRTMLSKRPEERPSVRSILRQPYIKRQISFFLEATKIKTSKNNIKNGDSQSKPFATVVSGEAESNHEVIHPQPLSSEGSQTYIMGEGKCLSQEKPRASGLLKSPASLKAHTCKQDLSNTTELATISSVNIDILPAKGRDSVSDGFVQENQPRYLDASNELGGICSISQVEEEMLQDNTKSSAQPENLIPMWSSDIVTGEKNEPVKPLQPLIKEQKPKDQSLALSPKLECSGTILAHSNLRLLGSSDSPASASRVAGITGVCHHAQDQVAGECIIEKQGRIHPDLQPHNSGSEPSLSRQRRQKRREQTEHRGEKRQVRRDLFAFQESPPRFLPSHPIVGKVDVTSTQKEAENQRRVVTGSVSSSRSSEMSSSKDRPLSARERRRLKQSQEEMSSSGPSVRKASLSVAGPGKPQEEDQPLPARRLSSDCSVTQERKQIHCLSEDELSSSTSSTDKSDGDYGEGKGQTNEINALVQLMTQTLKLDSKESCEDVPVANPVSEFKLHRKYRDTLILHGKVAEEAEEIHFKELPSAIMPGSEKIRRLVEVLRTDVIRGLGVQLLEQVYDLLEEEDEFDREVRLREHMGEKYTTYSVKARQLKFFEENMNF
Phosphorylase b kinase regulatory subunit alpha, liver isoform (Homo sapiens), sequence (P46019 whole entry, the tested form may be a part, canonical isoform): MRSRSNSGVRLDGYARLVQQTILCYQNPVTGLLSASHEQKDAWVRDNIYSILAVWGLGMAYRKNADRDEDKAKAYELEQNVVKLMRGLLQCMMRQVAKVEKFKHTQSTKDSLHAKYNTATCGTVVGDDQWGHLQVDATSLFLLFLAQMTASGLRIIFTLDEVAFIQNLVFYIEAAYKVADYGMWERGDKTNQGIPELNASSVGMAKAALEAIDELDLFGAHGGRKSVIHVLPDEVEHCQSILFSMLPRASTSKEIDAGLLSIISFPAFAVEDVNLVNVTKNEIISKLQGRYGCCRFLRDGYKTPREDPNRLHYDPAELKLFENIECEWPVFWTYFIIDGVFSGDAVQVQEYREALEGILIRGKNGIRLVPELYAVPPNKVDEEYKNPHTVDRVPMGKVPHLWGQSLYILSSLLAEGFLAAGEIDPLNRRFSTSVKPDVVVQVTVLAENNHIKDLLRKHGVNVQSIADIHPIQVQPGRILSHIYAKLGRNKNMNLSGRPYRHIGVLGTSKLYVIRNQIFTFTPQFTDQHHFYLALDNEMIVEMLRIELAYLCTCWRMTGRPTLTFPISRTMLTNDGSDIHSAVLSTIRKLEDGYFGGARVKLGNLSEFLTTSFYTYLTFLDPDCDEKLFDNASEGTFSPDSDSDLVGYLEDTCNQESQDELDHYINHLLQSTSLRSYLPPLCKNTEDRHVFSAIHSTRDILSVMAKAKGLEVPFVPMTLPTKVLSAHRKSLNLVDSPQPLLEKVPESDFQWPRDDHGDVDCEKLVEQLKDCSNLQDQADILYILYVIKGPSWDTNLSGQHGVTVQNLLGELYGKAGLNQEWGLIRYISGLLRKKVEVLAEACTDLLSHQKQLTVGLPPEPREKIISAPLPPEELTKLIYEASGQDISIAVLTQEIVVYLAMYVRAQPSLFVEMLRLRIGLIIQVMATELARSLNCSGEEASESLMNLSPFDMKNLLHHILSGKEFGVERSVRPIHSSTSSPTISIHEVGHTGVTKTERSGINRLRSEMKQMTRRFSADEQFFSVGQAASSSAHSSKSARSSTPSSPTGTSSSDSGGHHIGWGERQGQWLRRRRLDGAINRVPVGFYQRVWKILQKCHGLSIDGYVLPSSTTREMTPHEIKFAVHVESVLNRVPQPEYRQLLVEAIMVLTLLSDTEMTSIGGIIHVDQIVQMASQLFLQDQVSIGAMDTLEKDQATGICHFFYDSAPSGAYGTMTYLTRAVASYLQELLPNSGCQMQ
Mitogen-activated protein kinase 12 (Homo sapiens), sequence (P53778 whole entry): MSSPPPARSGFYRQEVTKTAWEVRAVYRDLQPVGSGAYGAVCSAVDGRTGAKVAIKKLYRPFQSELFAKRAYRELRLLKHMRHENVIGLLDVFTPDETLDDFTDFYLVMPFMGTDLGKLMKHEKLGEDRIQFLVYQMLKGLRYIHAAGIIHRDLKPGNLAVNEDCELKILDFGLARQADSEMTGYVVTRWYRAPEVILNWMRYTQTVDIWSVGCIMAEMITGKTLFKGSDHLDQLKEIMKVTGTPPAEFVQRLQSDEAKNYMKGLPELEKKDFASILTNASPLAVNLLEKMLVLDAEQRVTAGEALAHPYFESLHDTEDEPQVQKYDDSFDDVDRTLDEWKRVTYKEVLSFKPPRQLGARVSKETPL

SMILES: COCCOc1nc(-c2ccc(Cl)nc2)nc2c1CN(C(=O)c1ncn3ccccc13)CC2 [THPP-1]
- Ki [1]: 11.2 µM (not active)
- residual activity [2]: 100%
- residual activity [3]: 100%
- residual activity [4]: 100%
- residual activity [5]: 100%
- residual activity [6]: 100%
- residual activity [7]: 100%
- residual activity [8]: 100%
- residual activity [9]: 85%
- residual activity [10]: 80%
- residual activity [11]: 100%
- residual activity [12]: 100%
- residual activity [13]: 100%
- residual activity [14]: 100%
- residual activity [15]: 75%
- residual activity [16]: 100%
- residual activity [17]: 100%
- residual activity [18]: 100%
- residual activity [19]: 73%
- residual activity [20]: 100%
- residual activity [21]: 100%
- residual activity [22]: 100%
- residual activity [23]: 100%
- residual activity [24]: 100%
- residual activity [25]: 72%
- residual activity [26]: 100%
- residual activity [27]: 100%
- residual activity [28]: 100%
- residual activity [29]: 100%
- residual activity [30]: 100%
- residual activity [31]: 100%
- residual activity [32]: 100%
- residual activity [33]: 88%
- residual activity [34]: 100%
- residual activity [35]: 100%
- residual activity [36]: 100%
- residual activity [37]: 100%
- residual activity [38]: 100%
- residual activity [39]: 100%
- residual activity [40]: 100%
- residual activity [41]: 100%
- residual activity [42]: 83%
- inhibition [43]: 6.95%
- inhibition [44]: 42.3%
- inhibition [45]: 1.51%

SMILES: CC(C)CC(=O)N1CCc2nc(-c3ccc(Br)cc3)nc(N(C)Cc3ccccc3)c2C1 [THPP-1-NC]
- Ki [1]: > 25.3 µM (not active)
- residual activity [2]: 100%
- residual activity [3]: 100%
- residual activity [4]: 100%
- residual activity [5]: 100%
- residual activity [6]: 100%
- residual activity [7]: 100%
- residual activity [8]: 100%
- residual activity [9]: 100%
- residual activity [10]: 100%
- residual activity [11]: 100%
- residual activity [12]: 100%
- residual activity [13]: 100%
- residual activity [14]: 100%
- residual activity [15]: 98%
- residual activity [16]: 100%
- residual activity [17]: 100%
- residual activity [18]: 100%
- residual activity [19]: 92%
- residual activity [20]: 100%
- residual activity [21]: 100%
- residual activity [22]: 100%
- residual activity [23]: 100%
- residual activity [24]: 100%
- residual activity [25]: 79%
- residual activity [26]: 100%
- residual activity [27]: 100%
- residual activity [28]: 100%
- residual activity [29]: 100%
- residual activity [30]: 100%
- residual activity [31]: 100%
- residual activity [32]: 100%
- residual activity [33]: 68%
- residual activity [34]: 100%
- residual activity [35]: 100%
- residual activity [36]: 100%
- residual activity [37]: 100%
- residual activity [38]: 100%
- residual activity [39]: 99%
- residual activity [40]: 100%
- residual activity [41]: 100%
- residual activity [42]: 94%
- inhibition [43]: -5.76%
- inhibition [44]: 64.5%
- inhibition [45]: 12.3%
